In patent publication US20080182781A1, “Process for the Preparation of Peptides” (priority 2004, published 2008):
Like-named read-outs stand apart in the source and are kept apart here. Where a SMILES comes first, the peptide text is derived from it. Bridges are numbered along the chain shown (N, C = ends). [ ]: non-standard residue; d: D form. hArg = N=C(N)NCCCC[C@H](N)C(=O)O; Mpa = O=C(O)CCS

Tested on: ADP induced platelet aggregation
Assay type: cell-based
Conditions: human PRP
Method: The bioactivity of peptide of formula (1) is checked using platelet aggregation inhibition assay using 4× Laser Aggregometer (EMA). Freshly venous Blood from consented human donors are drawn and collected in citrated buffer. The platelet rich plasma (PRP) and platelet poor plasma are separated by centrifugation. Platelet count in PRP is adjusted to 2-3×10^8 platelets/ml. After adjusting the baseline aggregation with PPP, the PRP was treated with […] ADP and checked the percent total aggregation. The PRP is then first incubated with varying concentrations of reference standard and synthesized peptide of formula (1). ADP is then added to check the inhibition of aggregation. The reproducibility of bioactivity of synthesized peptide of formula 1 is checked several times and compared with reference standards.

SMILES: N=C(N)NCCCC[C@@H]1NC(=O)CCSSC[C@@H](C(N)=O)NC(=O)[C@@H]2CCCN2C(=O)[C@H](Cc2c[nH]c3ccccc23)NC(=O)[C@H](CC(=O)O)NC(=O)CNC1=O [SP of formula 1] ([Mpa][hArg]GDWPC-NH2; disulfide 1-7)
- % Inhibition of ADP induced aggregation (Donor 1, 140 nM): 44.6%
- % Inhibition of ADP induced aggregation (Donor 1, 280 nM): 61.40%
- % Inhibition of ADP induced aggregation (Donor 2, 70 nM): 46.66%
- % Inhibition of ADP induced aggregation (Donor 2, 140 nM): 51.16%
- % Inhibition of ADP induced aggregation (Donor 2, 280 nM): 67.74%
- % Inhibition of ADP induced aggregation (Donor 3, 70 nM): 57.42%
- % Inhibition of ADP induced aggregation (Donor 3, 140 nM): 60.28%
- % Inhibition of ADP induced aggregation (Donor 4, 140 nM): 20.52%
- % Inhibition of ADP induced aggregation (Donor 4, 280 nM): 42.73%
- % Inhibition of ADP induced aggregation (Donor 5, 70 nM): 52.63%
- % Inhibition of ADP induced aggregation (Donor 5, 140 nM): 87.21%
- % Inhibition of ADP induced aggregation (Donor 6, 140 nM): 82.92%
- IC50 (12 experiments, read-out: IC50 dose, inhibition of ADP induced platelet aggregation): < 0.14 µM
- inhibition of ADP induced platelet aggregation (seen in most of the samples): more than 50%
